Laboratory results published in paper PMC8049054, “Systematic Assessment of Fragment Identification for Multitarget Drug Design” (Chemmedchem, 2021).

What was measured:
5‐lipoxygenase (5‐LOX) = target: T1, 5‐lipoxygenase (5‐LOX) (Homo sapiens, UniProt P09917); experiment: 5-LOX activity assay (HPLC detection of product formation); type: biochemical; conditions: for 5‐LOX LE: ligand efficiency calculated from IC50; for IC50: mean±standard deviation of three independent experiments
T1 construct: made in house; host or cells: E. coli BL21 (DE3)
T1 sequence (P09917 1-674): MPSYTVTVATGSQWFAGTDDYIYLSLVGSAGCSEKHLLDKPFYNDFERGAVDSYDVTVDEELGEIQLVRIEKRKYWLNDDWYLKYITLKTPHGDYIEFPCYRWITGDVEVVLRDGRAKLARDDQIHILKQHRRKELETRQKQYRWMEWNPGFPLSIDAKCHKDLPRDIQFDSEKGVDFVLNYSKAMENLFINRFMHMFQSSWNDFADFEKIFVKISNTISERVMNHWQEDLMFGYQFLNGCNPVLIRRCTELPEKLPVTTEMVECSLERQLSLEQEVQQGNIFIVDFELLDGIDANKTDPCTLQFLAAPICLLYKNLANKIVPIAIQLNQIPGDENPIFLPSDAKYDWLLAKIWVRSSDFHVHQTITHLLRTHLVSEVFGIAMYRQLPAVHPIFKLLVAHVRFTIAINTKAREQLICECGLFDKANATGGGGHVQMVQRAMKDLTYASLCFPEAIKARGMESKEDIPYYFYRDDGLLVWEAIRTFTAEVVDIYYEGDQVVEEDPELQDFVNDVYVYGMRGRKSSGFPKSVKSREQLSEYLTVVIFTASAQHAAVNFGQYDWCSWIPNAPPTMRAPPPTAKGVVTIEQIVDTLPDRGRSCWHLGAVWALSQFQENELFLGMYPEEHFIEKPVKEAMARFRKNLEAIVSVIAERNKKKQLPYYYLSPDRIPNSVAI
Procedure: (§1) For hit validation, we employed secondary assays with orthogonal readouts to confirm fragment activities. Biochemical activity assays were chosen for the enzymes sEH, LTA4H, and 5‐LOX. […] RXRα and FXR modulation was assessed in cell‐based hybrid reporter gene assays. All ten compounds were tested at a single concentration of 500 μM in the sEH and LTA4H activity assays and with a concentration of 100 μM on 5‐LOX, RXRα, and FXR. Fragments showing an inhibition greater than 50 % (sEH‐H and LTA4H) or greater than 70 % (5‐LOX) as well as the hits determined in the DSF experiments were further characterized in full concentration‐response curves between 0.1 and 1000 μM. […] As alternative cell‐free assay we employed isothermal titration calorimetry (ITC) to determine binding affinity of the fragments towards the LBDs of both nuclear receptors. ITC was performed with a protein concentration of 50 μM and compound concentrations of 250 μM.
(§2) The 10 fragments showing dual activity in the DSF experiments were validated by functional assay screening with a fixed concentration of 500 µM in case of sEH-H and LTA4H, 100 µM in case of 5-LOX and 30 µM, 10 µM and 5 µM in case of FXR and […]
(§3) % (5-LOX) as well as the hits determined in the DSF experiments were further measured with concentrations between 1000 µM and 0.1 µM (sEH-H and LTA4H) and between 300 µM and 1 µM (5-LOX). The sEH and LTA4H activity assays were performed as triplicate and repeated 3 times. The 5-LOX activity assay was performed with one point per concentration and repeated 3 times Raw data was first analyzed in Microsoft Office Excel (2013), before IC50 curves were plotted and further analyzed using GraphPad Prism 7 and GraphPad Prism 8 for the shown graphs .
The eight approved drugs were measured in the orthogonal assay systems analogous to the fragments. […]
For the 5-LOX they […]
were measured as single point measurement in three different experiments with concentrations between 300 µM and 1 µM. For […]
(§4) Raw data was processed according to the fragments. […]

[1] = target: T2, leukotriene A4 hydrolase (LTA4H) (Homo sapiens, UniProt P09960); experiment: LTA4H activity assay (fluorogenic substrate Arg-AMC); type: biochemical; conditions: for LTA4H LE: ligand efficiency calculated from IC50; for IC50: mean±standard deviation of three independent experiments
T2 construct: made in house; host or cells: E. coli BL21 (DE3)
T2 sequence (P09960 1-611): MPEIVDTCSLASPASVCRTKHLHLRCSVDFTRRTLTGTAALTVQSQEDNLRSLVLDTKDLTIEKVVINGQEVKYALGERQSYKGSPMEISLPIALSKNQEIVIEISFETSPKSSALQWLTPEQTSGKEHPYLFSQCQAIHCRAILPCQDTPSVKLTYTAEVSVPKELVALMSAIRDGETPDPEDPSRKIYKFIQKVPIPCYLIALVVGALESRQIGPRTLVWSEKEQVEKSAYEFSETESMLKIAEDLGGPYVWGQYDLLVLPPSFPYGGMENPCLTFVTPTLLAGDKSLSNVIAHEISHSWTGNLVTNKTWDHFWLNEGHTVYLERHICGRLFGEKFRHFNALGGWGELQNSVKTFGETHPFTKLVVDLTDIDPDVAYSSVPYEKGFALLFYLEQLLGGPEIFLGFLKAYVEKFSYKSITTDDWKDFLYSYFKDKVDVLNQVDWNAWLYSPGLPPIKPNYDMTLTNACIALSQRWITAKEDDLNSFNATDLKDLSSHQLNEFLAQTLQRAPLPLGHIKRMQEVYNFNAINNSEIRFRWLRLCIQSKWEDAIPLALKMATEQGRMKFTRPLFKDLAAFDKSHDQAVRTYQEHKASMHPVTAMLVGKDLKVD
Procedure: as §1, §2, §3
The eight approved drugs were measured in the orthogonal assay systems analogous to the fragments. The approved drugs were […]
For the sEH-H and LTA4H, they were measured as triplicate in concentrations between 1000 µM and 1 µM and each measurement was repeated three times. […]
as §4
The LTA4H activity assay was performed adapted from Hiesinger et al.3.As in the sEH-H measurement 1 µl of compound dilution in DMSO or pure DMSO (for the positive and negative control) was placed in a black 96-well plate (Thermo Scientific™ Nunc™ F96 MicroWell™ Black Polystyrene Plate) and then 89 µl of protein-mix or buffer mix (without protein as negative control) were added and incubated for 30 min at room temperature.

| 5‐LOX LE (5‐lipoxygenase (5‐LOX)) [kcal/mol] | IC50 (5‐lipoxygenase (5‐LOX)) [µM] | LTA4H LE [1] [kcal/mol] | IC50 [1] [µM] | Compound |
| --- | --- | --- | --- | --- |
|  |  | 0.39 | 24.6 ± 3.2 | CCCCOc1cc(C(=O)OC)ccc1N [Compound 3] |
| 0.44 | 6.5 ± 2.2 |  |  | Clc1ccc2c(c1)Nc1ccccc1CC2 [Compound 8] |
| 0.36 | 54.3 ± 19.7 | 0.31 | 255 ± 24.9 | Fc1ccc(-c2c[nH]c3ccccc23)cc1 [Compound 10] |

Second part, the compound before the results:

| Compound | 5‐LOX LE (5‐lipoxygenase (5‐LOX)) [kcal/mol] | IC50 (5‐lipoxygenase (5‐LOX)) [µM] | LTA4H LE [1] [kcal/mol] | IC50 [1] [µM] |
| --- | --- | --- | --- | --- |
| Cc1cc(=O)n(-c2ccc(C)c(C)c2)[nH]1 [Compound 2] | 0.42 | 21.2 ± 7.3 |  |  |
| Oc1ccc(Cc2ccccc2)cc1 [Compound 4] |  |  |  | 3 ± 0.5 |
| Oc1ccc2cc[nH]c2c1 [Compound 5] | 0.64 | 19.9 ± 2.4 |  | > 300 |
| CCN(Cc1ccccc1)c1ccccc1 [Compound 7] |  | 118 ± 45.1 |  | > 300 |
| Oc1ccc(-c2ccc(F)cc2F)cc1 [Compound 9] | 0.38 | 64.6 ± 26.4 | 0.40 | 36.2 ± 7.6 |
